# Assay results reported in paper PMC12169669, “Regio- and Stereoselective Synthesis of Nitro-fatty Acids as NRF2 Pathway Activators Working under Ambient or Hypoxic Conditions” (Journal of Medicinal Chemistry, 2025).
# How the values were obtained:
# [1] = Cytotoxicity assay (sulforhodamine B, SRB); assay type: cell-based; settings: mouse, mouse embryonic fibroblasts (MEFs; STO)
# Protocol: For cytotoxicity experiments, mouse embryonic fibroblasts (MEFs; STO, 86032003, Sigma-Aldrich) were cultured in DMEM (41966-029, Thermo Fisher Scientific) + 5% FBS and were seeded at 10,000 cells per well in a 96-well plate and allowed to adhere for 8 h under atmospheric conditions. Plates were then placed in incubators with the specified oxygen concentrations (21%, 4%, or 1%) and incubated overnight. The following day, the medium was replaced with fresh medium (+5% FBS) adjusted to match the target oxygen concentrations and containing the test compounds (1–100 μM). After 24 h of incubation, adherent cells were stained using a modified sulforhodamine B (SRB) assay as described in. SRB was obtained from Sigma-Aldrich (S1402). Briefly, the medium was aspirated, and cells were fixed with 10% cold trichloroacetic acid. After washing twice with distilled water, the cells were stained with 0.1% SRB dissolved in 1% acetic acid. The cells were then washed 3–4 times with 1% acetic acid and allowed to dry. The stain was solubilized with 10 mM unbuffered TRIS base, and absorbance was measured at 540 nm (Infinite M200 Pro, Tecan, Austria). The cell viability of treated samples was calculated as a percentage of nontreated controls, and IC50 values were determined (see Statistics). According to the IC50 values, a nontoxic 2 μM concentration of NO2FAs was used in further in vitro experiments. For detailed results, see Supporting Information Figure S1 and Table S3. Values are presented as arithmetic means ± standard deviations (SD), unless otherwise specified. Half-maximal inhibitory concentration (IC50) values were calculated using four-parameter logistic regression (dose vs response). For Western blot analyses, one-way ANOVA with Dunnett’s multiple comparisons test was performed against control samples. The significance level was set at p < 0.05. Statistical analyses were conducted using GraphPad Prism v10.4 (GraphPad Software, www.graphpad.com). Statistical methods and the number of experiments are indicated in the figure legends. page 9: Supporting information S9 Cytotoxicity of tested NO2FA derivatives (Figure S1) 1 10 100 0 50 100 150 21% O2 Concentration (µM) % of control 1 10 100 0 50 100 150 4% O2 Concentration (µM) % of control 1 10 100 0 50 100 150 1% O2 Concentration (µM) % of control 10-NO2OA 9-NO2OA 10-NO2LA 9-NO2cLA 10-NO2SA A B C Figure S 1. Cytotoxicity of tested NO2FA derivatives. Mouse embryonic fibroblasts (MEFs) were cultured under varying oxygen conditions (21, 4, and 1%) and treated for 24 hours with the tested NO₂FAs, after which adherent cells were stained with sulforhodamine B. Results are presented as a percentage of control cells across different oxygen culture conditions (A–C). IC₅₀ values were determined from dose-response curves (see Supplementary Table S3). Data are expressed as mean ± SD from three independent experiments (n = 3). (1 picture or pasted object on this page, not shown here) page 11: Supporting information Calculated IC50 values of tested NO2FA derivatives (Table S3) Table S 3. Calculated IC50 values of tested NO2FA derivatives. IC 21% O2 4% O2 1% O2 50 Value SEM Value SEM Value SEM 10-NO2OA 6.28 0.19 5.74 0.20 8.19 0.21 9-NO2OA 9.47 0.57 7.75 0.54 6.93 0.32 10-NO2LA 11.78 0.41 11.17 0.26 13.79 1.02 9-NO2cLA 18.03 1.96 17.19 2.26 14.31 1.82 10-NO2SA ≈100 >100 >100 IC₅₀ values were derived from dose-response curves using four-parameter logistic regression across different oxygen culture conditions. Data are presented as mean and SEM values from three independent experiments (n = 3). The IC₅₀ values calculated for cultures in 21% oxygen indicate an increasing cytotoxic potential in the order: 10-NO₂OA > 9-NO₂OA > 10-NO₂LA > 9-NO₂cLA. […] In 1% oxygen, the order of cytotoxic potential shifted slightly to 9-NO₂OA > 10-NO₂OA > 10-NO₂LA > 9-NO₂cLA. However, differences in IC₅₀ values across the oxygen conditions for each NO₂FA derivative ranged from ca. 1 to 3 µM. […]
# NRF2 = NRF2 translocation assay (nuclear fraction, Western blot); assay type: cell-based, mouse; settings: BMCs, 2 μM, 1 h, 1% oxygen; for translocation of NRF2 to the nucleus, fold change relative to control: nuclear fraction
# Protocol: For the NRF2 translocation assays, 5.5 × 10^6 BMCs were incubated in 0.5 mL of complete medium with 2 μM NO2FAs or the control for 1 h in 1.5 mL microtubes, but only at 1% oxygen. Cytosol, membrane and nuclear cell compartments were isolated with a Cell Fractionation Kit (9038, Cell Signaling Technology) according to the manufacturer’s instructions. Equal volumes of nuclear lysates (20 μL/well) were loaded onto 7–15% SDS-polyacrylamide gels. Histone H3 was used as the loading control for the nuclear fraction.
# 5 Subcellular localization of NRF2. NO 2 FA derivatives promote nuclear translocation of NRF2 in mouse BMCs. BMCs were cultured under 1% oxygen conditions and treated for 1 h with 2 μM of 10-NO 2 OA, 10-NO 2 LA, or 10-NO 2 SA. A cell fractionation kit was used to isolate the nuclear fraction (A), followed by the detection of NRF2 and histone H3 (used as a control nuclear protein). Western blot results (A) are shown as the fold change relative to control cells. Data are expressed as mean ± SD from two independent experiments (n = 2). Statistical analysis was performed using one-way ANOVA with Dunnett’s multiple comparisons test (* p < 0.05; *** p < 0.001). (B) Representative immunocytochemistry staining of BMCs with NRF2 antibody. BMCs were cultured in 1% oxygen followed by NRF2 and nuclei (DAPI) staining. Treatment with 10-NO2OA increased the colocalization of NRF2 with the nucleus (scale bar: 20 μm).
smiles,measurement,setting,value
"CCCCCCCC/C=C(\CCCCCCCC(=O)O)[N+](=O)[O-] [9-NO2OA, (9E)-9-Nitro-oleic Acid]",IC50 at 24 h,[1]; 1% O2,6.93 ± 0.32 µM
same,IC50 at 24 h,[1]; 4% O2,7.75 ± 0.54 µM
same,IC50 at 24 h,[1]; 21% O2,9.47 ± 0.57 µM
"CCCCCCCC/C(=C\CCCCCCCC(=O)O)[N+](=O)[O-] [10-NO2OA, (9E)-10-Nitro-oleic Acid]",IC50 at 24 h,[1]; 1% O2,8.19 ± 0.21 µM
same,IC50 at 24 h,[1]; 4% O2,5.74 ± 0.2 µM
same,IC50 at 24 h,[1]; 21% O2,6.28 ± 0.19 µM
same,NRF2 translocation activity relative to 10-NO2LA,NRF2,ca. 1.7 fold
same,"translocation of NRF2 to the nucleus, fold change relative to control",NRF2,significantly increased
"CCCCCCCCC(CCCCCCCCC(=O)O)[N+](=O)[O-] (centres unmarked) [10-NO2SA, 10-Nitro Stearic acid]",IC50 at 24 h,[1]; 1% O2,> 100 µM
same,IC50 at 24 h,[1]; 4% O2,> 100 µM
same,IC50 at 24 h,[1]; 21% O2,~100 µM
same,IC50 at 24 h,"[1]; under all three oxygen conditions (21, 4, 1%)",≥ 100 µM
same,"translocation of NRF2 to the nucleus, fold change relative to control",NRF2,no effects
"CCCCC/C=C\C/C(=C\CCCCCCCC(=O)O)[N+](=O)[O-] [10-NO2LA, (9E,12Z)-10-Nitro Linoleic Acid]",IC50 at 24 h,[1]; 1% O2,13.8 ± 1.02 µM
same,IC50 at 24 h,[1]; 4% O2,11.2 ± 0.26 µM
same,IC50 at 24 h,[1]; 21% O2,11.8 ± 0.41 µM
same,"translocation of NRF2 to the nucleus, fold change relative to control",NRF2,significantly increased
"CCCCCC/C=C/C=C(\CCCCCCCC(=O)O)[N+](=O)[O-] [9-NO2cLA, (9E,11E)-9-Nitro Conjugated Linoleic Acid]",IC50 at 24 h,[1]; 1% O2,14.3 ± 1.82 µM
same,IC50 at 24 h,[1]; 4% O2,17.2 ± 2.26 µM
same,IC50 at 24 h,[1]; 21% O2,18 ± 1.96 µM
